ChEMBL document CHEMBL1201862, “PubChem BioAssay data set” (2004)
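A five-concentration, 48-hour dose response in 96-well plates underlies each endpoint, interpolated linearly between surrounding concentrations. Here, GI50 denotes the concentration required for 50% inhibition of growth.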 Active and inactive are the calls of the source. No stated cut-off is given here; in the data, active = GI50 up to about 1.1 µM and inactive = higher.

How the values were obtained:
Test in all cases: NCI tumour cell line growth inhibition, 48 h
[1] = test system: 786-0
[2] = test system: COLO 205
[3] = test system: DMS-114
[4] = test system: DMS-273
[5] = test system: HCC 2998
[6] = test system: HCT-116
[7] = test system: K562
[8] = test system: MOLT-4
[9] = test system: OVCAR-4
[10] = test system: OVCAR-8
[11] = test system: RPMI-8226
[12] = test system: SN12C
[13] = test system: SW-620
[14] = test system: UACC-257
[15] = test system: KM12
[16] = test system: NCI-H226
[17] = test system: SF-268
[18] = test system: SK-MEL-2
[19] = test system: Hs-578T
[20] = test system: MDA-MB-435

Measured: GI50

Cc1c(C#N)c(=O)[nH]c(=O)n1CCN1CCN(C(=O)NCCCCCCNC(=O)N2CCN(CCn3c(C)c(C#N)c(=O)[nH]c3=O)CC2)CC1
inactive: [1] > 100 µM | [2] > 100 µM | [3] > 100 µM | [4] > 100 µM | [5] > 100 µM | [6] > 100 µM | [7] > 100 µM | [8] > 100 µM | [9] > 100 µM | [10] > 100 µM | [11] > 100 µM | [12] > 100 µM | [13] > 100 µM | [14] > 100 µM

CCCCNC(=S)Nn1c(-c2ccccc2)nc2ccccc2c1=O
inactive: [1] > 100 µM | [2] > 100 µM | [3] 87.3 µM | [4] > 100 µM | [6] > 100 µM | [7] 67.1 µM | [15] > 100 µM | [8] 49.9 µM | [16] > 100 µM | [9] > 100 µM | [10] > 100 µM | [11] > 100 µM | [17] > 100 µM | [18] > 100 µM | [12] > 100 µM | [13] > 100 µM | [14] > 100 µM

Cc1cc(C)c(S(=O)(=O)ONC(=O)OC(C)(C)C)c(C)c1
inactive: [1] > 100 µM | [2] > 100 µM | [4] > 100 µM | [5] > 100 µM | [6] > 100 µM | [7] > 100 µM | [15] > 100 µM | [8] > 100 µM | [9] > 100 µM | [10] > 100 µM | [11] > 100 µM | [17] > 100 µM | [18] > 100 µM | [12] > 100 µM | [13] > 100 µM | [14] > 100 µM

CCC(=O)N(O)C(C)(C)C
inactive: [1] > 100 µM | [2] > 100 µM | [3] > 100 µM | [5] > 100 µM | [6] > 100 µM | [7] > 100 µM | [15] > 100 µM | [8] > 100 µM | [16] > 100 µM | [9] > 100 µM | [10] > 100 µM | [11] > 100 µM | [17] > 100 µM | [12] > 100 µM | [13] > 100 µM | [14] > 100 µM

O=C1C=CC2(CCC23C=CC(=O)O3)O1 (stereo unspecified)
inactive: [1] > 100 µM | [2] > 100 µM | [3] > 100 µM | [5] > 100 µM | [6] > 100 µM | [7] > 100 µM | [15] > 100 µM | [8] > 100 µM | [16] > 100 µM | [9] > 100 µM | [10] > 100 µM | [11] > 100 µM | [17] > 100 µM | [18] > 100 µM | [12] > 100 µM | [13] 94.6 µM | [14] > 100 µM

CNNC1=NS(=O)(=O)c2cc(C#N)c(Cl)cc2S1
inactive: [1] > 10 µM | [2] > 10 µM | [5] > 10 µM | [6] > 10 µM | [19] > 10 µM | [7] > 10 µM | [15] > 10 µM | [20] > 10 µM | [8] > 10 µM | [16] > 10 µM | [9] > 10 µM | [10] > 10 µM | [11] > 10 µM | [17] > 10 µM | [18] > 10 µM | [12] > 10 µM | [13] > 10 µM | [14] > 10 µM

O=c1[nH]c(=O)n(C2CC(O)C(CO)O2)c2nc3ccc4ccccc4c3nc12 (stereo unspecified)
inactive: [1] 74.3 µM | [2] 64.9 µM | [5] 59 µM | [6] > 100 µM | [19] 55.5 µM | [7] 45.2 µM | [15] > 100 µM | [20] > 100 µM | [8] 24.5 µM | [16] 17.8 µM | [9] 67.9 µM | [10] 79.1 µM | [11] 22.8 µM | [17] 55.8 µM | [18] 95.5 µM | [12] 51.2 µM | [13] 99.8 µM | [14] > 100 µM

NC(=O)C(=O)C1CCC2=C(Sc3ccccc3N2)C1=O (stereo unspecified)
inactive: [1] > 100 µM | [2] > 100 µM | [3] > 100 µM | [5] > 100 µM | [6] > 100 µM | [7] > 100 µM | [15] > 100 µM | [8] > 100 µM | [9] > 100 µM | [10] > 100 µM | [11] > 100 µM | [17] > 100 µM | [18] > 100 µM | [13] > 100 µM | [14] > 100 µM
